Columns and labels:
[1] = test system: PC-3; assay: Cytotoxicity against human PC3 cells after 5 days by trypan blue exclusion assay; type: functional, cell-based; conditions: PC-3, 120 h
[2] = test system: DU-145; assay: Cytotoxicity against human DU145 cells after 5 days by trypan blue exclusion assay; type: functional, cell-based; conditions: DU-145, 120 h
[3] = Cytotoxicity against human MCF10A cells up to 1 uM after 5 days by trypan blue exclusion assay; type: cell-based; conditions: mcf-10a, 120 h
[4] = test system: A549; assay: Cytotoxicity against human A549 cells after 5 days by trypan blue exclusion assay; type: functional, cell-based; conditions: A549, 120 h
[5] = test system: HeLa; assay: Cytotoxicity against human HeLa cells after 5 days by trypan blue exclusion assay; type: functional, cell-based; conditions: 120 h
[6] = test system: MDA-MB-231; assay: Cytotoxicity against human MDA-MB-231 cells after 5 days by trypan blue exclusion assay; type: functional, cell-based; conditions: MDA-MB-231, 120 h

| Compound | IC50 [1] | IC50 [2] | Activity [3] | IC50 [4] | IC50 [5] | IC50 [6] |
| --- | --- | --- | --- | --- | --- | --- |
| Cn1ccnc1/C=C1\CCC/C(=C\c2nccn2C)C1=O | 94 nM | 630 nM | – | – | – | – |
| CN1C/C(=C\c2nccn2C)C(=O)/C(=C/c2nccn2C)C1 | 93 nM | 130 nM | – | – | – | – |
| Cn1ccnc1/C=C/C(=O)/C=C/c1nccn1C | 110 nM | 57 nM | – | – | – | – |
| CC(C)n1ccnc1/C=C/C(=O)/C=C/c1nccn1C(C)C | 89 nM | 54 nM | – | – | – | – |
| CCC(C)n1ccnc1/C=C/C(=O)/C=C/c1nccn1C(C)CC (centres undefined) | 63 nM | 35 nM | Non-toxic | 100 nM | 62 nM | 130 nM |
| CC(C)Cn1ccnc1/C=C/C(=O)/C=C/c1nccn1CC(C)C | 46 nM | 57 nM | Non-toxic | 110 nM | 390 nM | 150 nM |
| Cn1nccc1/C=C/C(=O)/C=C/c1ccnn1C | 130 nM | 160 nM | – | – | – | – |
| O=C(/C=C/c1nccs1)/C=C/c1nccs1 | 68 nM | 55 nM | – | – | – | – |
| O=C(/C=C/c1cscn1)/C=C/c1cscn1 | 94 nM | 96 nM | – | – | – | – |
| Cc1nc(/C=C/C(=O)/C=C/c2coc(C)n2)co1 | 840 nM | 750 nM | – | – | – | – |
| Cc1cc(/C=C/C(=O)/C=C/c2cc(C)on2)no1 | 250 nM | 42 nM | – | – | – | – |
| Cc1cc(/C=C/C(=O)/C=C/c2cc(C)no2)on1 | 41 nM | 16 nM | Non-toxic | 160 nM | 190 nM | 156 nM |
| O=C(/C=C/c1ccccn1)/C=C/c1ccccn1 | 33 nM | 20 nM | Non-toxic | 51 nM | 120 nM | 97 nM |
| CC(C)n1ccnc1/C=C1\CN(C)C/C(=C\c2nccn2C(C)C)C1=O | 110 nM | 140 nM | – | – | – | – |
| CCC(C)n1ccnc1/C=C1\CN(C)C/C(=C\c2nccn2C(C)CC)C1=O (centres undefined) | 6630 nM | 10 nM | – | – | – | – |
| CN1C/C(=C\c2cnn(C)c2)C(=O)/C(=C/c2cnn(C)c2)C1 | 76000 nM | – | – | – | – | – |
| CN1C/C(=C\c2ccnn2C)C(=O)/C(=C/c2ccnn2C)C1 | 1020 nM | 1640 nM | – | – | – | – |

| Compound | IC50 [1] | IC50 [2] | Activity [3] | IC50 [4] | IC50 [5] | IC50 [6] |
| --- | --- | --- | --- | --- | --- | --- |
| CN1C/C(=C\c2nccs2)C(=O)/C(=C/c2nccs2)C1 | 420 nM | 46 nM | – | – | – | – |
| CN1C/C(=C\c2cscn2)C(=O)/C(=C/c2cscn2)C1 | 800 nM | 430 nM | – | – | – | – |
| Cc1nc(/C=C2\CN(C)C/C(=C\c3coc(C)n3)C2=O)co1 | 310 nM | 76 nM | – | – | – | – |
| Cc1cc(/C=C2\CN(C)C/C(=C\c3cc(C)on3)C2=O)no1 | 140 nM | 34 nM | – | – | – | – |
| Cc1cc(/C=C2\CN(C)C/C(=C\c3cc(C)no3)C2=O)on1 | 130 nM | 690 nM | – | – | – | – |
| CC(C)n1ccnc1/C=C1\CCC/C(=C\c2nccn2C(C)C)C1=O | 160 nM | 100 nM | – | – | – | – |
| CCC(C)n1ccnc1/C=C1\CCC/C(=C\c2nccn2C(C)CC)C1=O (centres undefined) | 830 nM | 250 nM | – | – | – | – |
| CC(C)Cn1ccnc1/C=C1\CCC/C(=C\c2nccn2CC(C)C)C1=O | 470 nM | 360 nM | – | – | – | – |
| Cn1cc(/C=C2\CCC/C(=C\c3cnn(C)c3)C2=O)cn1 | 130000 nM | 90000 nM | – | – | – | – |
| Cn1nccc1/C=C1\CCC/C(=C\c2ccnn2C)C1=O | 260 nM | 730 nM | – | – | – | – |
| O=C1/C(=C/c2nccs2)CCC/C1=C\c1nccs1 | 110 nM | 120 nM | – | – | – | – |
| O=C1/C(=C/c2cscn2)CCC/C1=C\c1cscn1 | 120 nM | 75 nM | – | – | – | – |
| Cc1nc(/C=C2\CCC/C(=C\c3coc(C)n3)C2=O)co1 | 1970 nM | 1650 nM | – | – | – | – |
| Cc1cc(/C=C2\CCC/C(=C\c3cc(C)on3)C2=O)no1 | 71 nM | 70 nM | – | – | – | – |
| Cc1cc(/C=C2\CCC/C(=C\c3cc(C)no3)C2=O)on1 | 54 nM | 340 nM | – | – | – | – |
| COc1cc(/C=C/C(=O)CC(=O)/C=C/c2ccc(O)c(OC)c2)ccc1O [CURCUMIN] | 1980 nM | 300 nM | – | 15000 nM | 12600 nM | 880 nM |
